Read-outs that look alike come from different tables or passages of the source.
Target: T1, Aβ42 (Homo sapiens, UniProt P05067)
T1 construct: amyloid beta (1–42) (Aβ42) self‐aggregation; purchased GenicBio Limited (Shanghai, China)
Assay: Inhibition of Aβ42 self-aggregation (Thioflavin T fluorescence)
Type: biochemical
Conditions: read-out: Inhibition of Aβ42 self-aggregation, %
Procedure: Inhibition of β-amyloid (1– 42) (Aβ42) self-aggregation
Inhibition of Aβ42 self-aggregation by test compounds was studied using the thioflavin T (ThT)
fluorescence method [8- 10] with minor modifications as described in detail in [11]. Lyophilized
HFIP- pretreated Aβ42 (GenicBio Limited (Shanghai, China), 1 mg) was dissolved in DMSO to
obtain a stable 500 μM solution.
pH 8.0 were incubated for 24 h at 37°C in the absence or presence of 100 μM test compounds.
Myricetin in the same concentration was used as reference. After incubation, 5 μM ThT in 50
mM glycine-NaOH buffer pH 8.5 was added, and the fluorescence was measured at 440 nm
Each assay was run in triplicate. The degree of
inhibition of Aβ42 self-aggregation by the studied compounds (%) was calculated by the
of inhibitor, respectively, after subtracting the fluorescence of respective blanks.

T1 sequence (P05067 672-713 limits assumed): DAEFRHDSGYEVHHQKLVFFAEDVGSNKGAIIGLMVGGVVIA

SMILES	inhibition at 100 µM (Aβ42 50 µM, compound 100 µM) [%]	inhibition at 100 µM [%]
Nc1c2c(nc3c1CCC3)CCCC2 [Amiridine, amiridine]	6.4 ± 0.5	
O=c1c(O)c(-c2cc(O)c(O)c(O)c2)oc2cc(O)cc(O)c12 [Myricetin]		74.7 ± 5.2

From PMC13400319 (Chemmedchem, 2026)
